Measurements reported in patent US10494380B2, “Nitrogen-containing tricyclic derivatives having HIV replication inhibitory activity” (priority 2015, dated 2019).
Like-named read-outs stand apart in the source and are kept apart here.

What was measured:
HIV = type: cell-based; settings: EC50 in the presence of human serum (25%) versus without human serum, MT-4 cells
Method: To confirm the influence of human serum on anti-HIV activity as necessary, human serum was added and determined EC50 in this condition. Human serum (100 μL/well) was dispensed into each anti-HIV active substance at a designated concentration dispensed 50 μL each in advance into a 96-well microtiter plate, and the plate was incubate at room temperature for 1 hour. To the serum-free plate, only culture medium (100 μL/well) was dispensed into 96-well microtiter plate. MT-4 cells (3×10^4 cells/well) was infected with 3 μL/well of HIV solution diluted to an appropriate concentration (600 pfu/50 μL) by the required number of wells and incubated at 37° C. for 1 hour. The infected cells were centrifuged at 1200 rpm for 5 minutes, the supernatant was discarded, and the infected cells were dispersed into culture medium for the required number of wells at 50 μL/well. Infected cell suspension was dispensed into a 96-well microtiter plate of which anti-HIV active substance and human serum prepared in advance. The cell mixture was mixed with a plate mixer and cultured in a CO2 incubator for 4 days. The EC50 in the presence of human serum was calculated in the same manner as in Test Example 1 and the ratio of EC50 in the presence of human serum and EC50 in the absence of human serum was calculated as the potency shift value. […]

[1] = tested on: T125A mutant virus (HIV-1 NL-432 recombinant molecular clone, IN gene); experiment: HIV replication inhibition assay against integrase 124/125 mutant virus (Test Example 2); type: cell-based
Method: Persistently HIV (HTLV-IIIB strain) infected human T cell strain Molt-4 clone8 was cultured in RPMI-1640 medium supplemented with 10% fetal bovine serum and the supernatant was filtered, then the virus titer was measured and stored at −80° C. Polymorphic mutations in HIV-1-infected patients have been observed in amino acids 124 and 125 on the HIV-1 integrase (IN) gene. A point mutation was introduced on the amino acids 124 and/or 125 of IN gene of the HIV-1 NL-432 recombinant molecular clone to generate a mutant virus plasmid construct. These mutant virus plasmids were transfected into 293T cells, and after two days, the supernatant was filtered and then the virus titer was measured and stored at −80° C. Each anti-HIV active substance was diluted with culture medium described above to the designated concentration, which was dispensed into 96-well microtiter plate by 50 μL. Next, 100 μL of MT-4 cell suspension (2.5×10^4 cells) was dispensed into each well, then 50 μl of HIV-containing supernatant diluted with culture medium described above was added thereto (60 pfu (plaque forming unit)).
Cells were cultured at 37° C. in CO2 incubator for four days, then 30 μL of MTT (3-(4,5-dimethylthiazole-2-yl)-2,5-diphenyltetrazolyum bromide) reagent (5 mg/mL in PBS) was added to all wells followed by incubation for 1 hour. In this step, MTT was reduced to insoluble formazan in living cells. To elute generated formazan, 150 μL of the culture supernatant was removed from all wells, then 150 μL of cell lysis solution (10% Triton X-100 and 0.4% (v/v)-HCl containing isopropanol) was added thereto, followed by shaking with a plate mixer. The formazan was measured with micro plate reader at OD: 560 nm and 690 nm (reference wavelength) and the result was compared with the reference wells. EC50 means the compound concentration at which 50% of cytotoxicity caused by virus infection is inhibited.

[2] = Human immunodeficiency virus 1, MT4, read-out: EC50 against T125A mutant virus, T125A mutant virus (HIV-1 NL-432 IN gene), MT-4 cells, MTT
[3] = T125A mutant virus (HIV-1 NL-432 IN gene), MT-4 cells, MTT, read-out: EC50 against T125A mutant virus
[4] = read-out: EC50 against T125A mutant virus, T125A mutant virus (HIV-1 NL-432 IN gene), MT-4 cells, MTT

SMILES | Potency shift value (HIV) | EC50 [1, 2] | EC50 [1, 3] | EC50 [1, 4]
Cc1c([C@H](OC(C)(C)C)C(=O)O)c(-c2ccc(Cl)cc2)c2cc(C)n3c2c1N(C)C(c1ccccc1)C3 (stereo partly drawn) [Compound I-333] | 6.4 | – | – | –
Cc1ccc(-c2c([C@H](OC(C)(C)C)C(=O)O)c(C)c3c4c2cc(C)n4CCN3c2nc3ccccc3n2C)cc1 [Compound I-251] | 9.6 | 4.2 nM | – | –
Cc1c([C@H](OC(C)(C)C)C(=O)O)c(-c2ccc(Cl)cc2)c2cc(C)n3c2c1N(C(=O)C(=O)N(C)C)[C@@H](C)C3 [Compound I-168] | 2.9 | – | – | –
Cc1c([C@H](OC(C)(C)C)C(=O)O)c(-c2ccc(Cl)cc2)c2cc(C)n3c2c1N(c1ncc(O)cn1)CC3 [Compound I-183] | 7.6 | 31 nM | – | –
Cc1cc2c(-c3ccc(Cl)cc3)c([C@H](OC(C)(C)C)C(=O)O)c(Cl)c3c2n1CCN3C [Compound I-228] | 9.1 | 2.6 nM | – | –
Cc1ccc(-c2c([C@H](OC(C)(C)C)C(=O)O)c(C)c3c4c2cc(C)n4CCN3CCN2CCCC2)cc1 [Compound I-130] | 2.7 | 27 nM | – | –
COCCOC(=O)Nc1cnc(N2CCn3c(C)cc4c(-c5ccc(C)cc5)c([C@H](OC(C)(C)C)C(=O)O)c(C)c2c43)nc1 [Compound I-203] | 30 | – | 13 nM | –
Cc1ccc(-c2c([C@H](OC(C)(C)C)C(=O)O)c(C)c3c4c2cc(C)n4CCN3c2cccc(CO)n2)cc1 [Compound I-216] | 9.2 | – | 20 nM | –
CNCCOc1cnc(N2CCn3c(C)cc4c(-c5ccc(C)cc5)c([C@H](OC(C)(C)C)C(=O)O)c(C)c2c43)nc1 [Compound I-224] | 3.3 | – | 79 nM | –
COc1cccc(N2CCn3c(C)cc4c(-c5ccc(Cl)cc5)c([C@H](OC(C)(C)C)C(=O)O)c(C)c2c43)n1 [Compound I-194] | 13 | 12 nM | – | –
Cc1ccc(-c2c([C@H](OC(C)(C)C)C(=O)O)c(C)c3c4c2cc(C)n4CCN3c2ncc(C(=O)N(C)C)cn2)cc1 [Compound I-250] | 19 | 9.9 nM | – | –
Cc1ccc(-c2c([C@H](OC(C)(C)C)C(=O)O)c(C)c3c4c2cc(C)n4CCN3c2ncc(CCO)cn2)cc1 [Compound I-335] | 36 | 14 nM | – | –
Cc1ccc(-c2c([C@H](OC(C)(C)C)C(=O)O)c(C)c3c4c2cc(C)n4CCN3c2ncc(Oc3nccc4ccccc34)cn2)cc1 [Compound I-344] | 33 | 17 nM | – | –
CC(=O)NCCOc1cnc(N2CCn3c(C)cc4c(-c5ccc(C)cc5)c([C@H](OC(C)(C)C)C(=O)O)c(C)c2c43)nc1 [Compound I-295] | 5.3 | 62 nM | – | –
CCOCCN1CCn2c(C)cc3c(-c4ccc(C)cc4)c([C@H](OC(C)(C)C)C(=O)O)c(C)c1c32 [Compound I-207] | 8.1 | – | 19 nM | –
Cc1c([C@H](OC(C)(C)C)C(=O)O)c(-c2ccc(Cl)cc2)c2cc(C)n3c2c1N(c1nccs1)CC3 [Compound I-165] | 8.3 | 6.9 nM | – | –
Cc1c([C@H](OC(C)(C)C)C(=O)O)c(-c2ccc(Cl)cc2)c2cc(C)n3c2c1N(c1cccc(=O)n1C)CC3 [Compound I-219] | 7.6 | – | 43 nM | –
Cc1c([C@H](OC(C)(C)C)C(=O)O)c(-c2ccc(Cl)cc2)c2cc(C)n3c2c1OC(C)C3 (stereo partly drawn) [Compound I-196] | 11 | – | – | 18 nM
Cc1c([C@H](OC(C)(C)C)C(=O)O)c(C2=CCC(C)(C)CC2)c2cc(C)n3c2c1N(CCN(C)C)CC3 [Compound I-320] | 2.6 | 16 nM | – | –
Cc1ccc(-c2c([C@H](OC(C)(C)C)C(=O)O)c(F)c3c4c2cc(C)n4CCN3C)cc1 [Compound I-179] | 23 | 83 nM | – | –
Cc1ccc(-c2c([C@H](OC(C)(C)C)C(=O)O)c(C)c3c4c2cc(C)n4CCN3c2cnc(C)cn2)cc1 [Compound I-264] | 26 | 4.4 nM | – | –
CCCO[C@H](C(=O)O)c1c(C)c2c3c(cc(C)n3CCN2c2ncc(OC)cn2)c1-c1ccc(Cl)cc1 [Compound I-297] | 7.6 | – | – | –

SMILES | Potency shift value (HIV) | EC50 [1, 2] | EC50 [1, 3] | EC50 [1, 4]
COc1cnc(N2CCn3c(C)cc4c(-c5ccc(Cl)cc5)c([C@H](OCC5CC5)C(=O)O)c(C)c2c43)nc1 [Compound I-298] | 11 | – | – | –
Cc1c([C@H](OC(C)(C)C)C(=O)O)c(-c2ccc(Cl)cc2)c2cc(C)n3c2c1N(c1ncc(OCOCC[Si](C)(C)C)cn1)CC3 [Compound I-233] | 12 | – | – | –
Cc1ccc(-c2c([C@H](OC(C)(C)C)C(=O)O)c(C)c3c4c2cc(C)n4CCN3c2cccc(C(F)(F)F)n2)cc1 [Compound I-285] | 5.1 | – | – | –
Cc1c([C@H](OC(C)(C)C)C(=O)O)c(-c2ccc(Cl)cc2)c2cc(C)n3c2c1N(C)C1CNCC13 (stereo partly drawn) [Compound I-237] | 2.4 | – | – | –
CCO[C@H](C(=O)O)c1c(C)c2c3c(cc(C)n3CCN2c2ncc(OC)cn2)c1-c1ccc(Cl)cc1 [Compound I-296] | 2.1 | – | – | –
Cc1c([C@H](OC(C)(C)C)C(=O)O)c(-c2ccc(F)cc2)c2cc(C)n3c2c1N(CC(=O)N(C)C)CC3 [Compound I-161] | 1.9 | – | – | –
CCCCCO[C@H](C(=O)O)c1c(C)c2c3c(cc(C)n3CCN2c2ncc(OC)cn2)c1-c1ccc(Cl)cc1 [Compound I-326] | 5.8 | – | – | –
Cc1c([C@H](OC(C)(C)C)C(=O)O)c(-c2ccc(Cl)cc2)c2cc(C)n3c2c1N(C)S(=O)(=O)CC3 [Compound I-071] | – | 45 nM | – | –
COCC(=O)N1CCn2c(C)cc3c(-c4ccc(C)cc4)c([C@H](OC(C)(C)C)C(=O)O)c(C)c1c32 [Compound I-047] | – | 46 nM | – | –
Cc1c([C@H](OC(C)(C)C)C(=O)O)c(-c2ccc(Cl)cc2)c2cc(C)n3c2c1N(CCN(C)C)[C@@H](C)C3 [Compound I-113] | – | 22 nM | – | –
COc1cc(Oc2cnc(N3CCn4c(C)cc5c(-c6ccc(C)cc6)c([C@H](OC(C)(C)C)C(=O)O)c(C)c3c54)nc2)nc(OC)n1 [Compound I-346] | – | 10 nM | – | –
Cc1c([C@H](OC(C)(C)C)C(=O)O)c(-c2ccc(F)cc2)c2cc(C)n3c2c1N(C)CC3C (stereo partly drawn) [Compound I-133] | – | – | – | 96 nM
Cc1c([C@H](OC(C)(C)C)C(=O)O)c(-c2ccc(Cl)cc2)c2cc(C)n3c2c1N(S(C)(=O)=O)CC3C (stereo partly drawn) [Compound I-063] | – | – | – | 4.5 nM
Cc1c([C@H](OC(C)(C)C)C(=O)O)c(-c2ccc(Cl)cc2)c2cc(C)n3c2c1N(S(=O)(=O)C1CC1)CC3 [Compound I-032] | – | 5 nM | – | –
Cc1c([C@H](OC(C)(C)C)C(=O)O)c(-c2ccc(Cl)cc2)c2cc(C)n3c2c1NC(=O)C3C (stereo partly drawn) [Compound I-055] | – | – | – | 24 nM
COc1cnc(N2CCn3c(C)cc4c(-c5ccc(Cl)cc5)c([C@H](OCCO)C(=O)O)c(C)c2c43)nc1 [Compound I-317] | 1.3 | – | – | –
CCCCO[C@H](C(=O)O)c1c(C)c2c3c(cc(C)n3CCN2c2ncc(OC)cn2)c1-c1ccc(Cl)cc1 [Compound I-325] | 5.4 | – | – | –
Cc1c([C@H](OC(C)(C)C)C(=O)O)c(-c2ccc(Cl)cc2)c2cc(C)n3c2c1N(Cc1ncccn1)CC3 [Compound I-116] | – | 6.7 nM | – | –
Cc1c([C@H](OC(C)(C)C)C(=O)O)c(-c2ccc(Cl)cc2)c2cc(C)n3c2c1N(c1ccc(F)cn1)CC3 [Compound I-154] | – | 13 nM | – | –
Cc1ccc(-c2c([C@H](OC(C)(C)C)C(=O)O)c(C)c3c4c2cc(C)n4CCN3CCN2CCOCC2)cc1 [Compound I-131] | – | 15 nM | – | –
Cc1c([C@H](OC(C)(C)C)C(=O)O)c(-c2ccc(Cl)cc2)c2cc(C)n3c2c1N(c1ccncc1)CC3 [Compound I-155] | – | 58 nM | – | –
Cc1ccc(-c2c([C@H](OC(C)(C)C)C(=O)O)c(C)c3c4c2cc(C)n4C2(CCCC2)CN3C)cc1 [Compound I-302] | – | – | 43 nM | –
